Source: patent US12678546B2, “Systems, methods, and apparatus for modeling and optimizing dialysis effects” (INNCELEREX, priority 2022, dated 2026)
Read-outs that look alike come from different tables or passages of the source.

Columns and labels:
[1] = Ex-vivo simulated dialysis treatment (CRRT mimic) of bovine plasma containing creatinine; type: in vitro ADME; conditions: for Reduction in creatinine on the arterial side / Reduction in creatinine on the venous side / Total amount of creatinine in effluent, of total amount in the reservoir at time zero: at 60 minutes; for Change in creatinine concentration, venous vs. arterial side, mean over timepoints: the values are: percent change venous vs arterial; for C0 at 0 min: bovine, prior to starting ex-vivo dialysis, read-out: Starting creatinine concentration at time zero
Excerpt: FIG. 1 illustrates an exemplary system 100 and configuration for a simulated treatment on a drug or analyte of interest. The exemplary system 100 of FIG. 1 was designed and built to mimic Continuous Renal Replacement Therapy (CRRT). CRRT is a method of slower, continuous dialysis to allow solute and fluid homeostasis. CRRT […] intermittent hemodialysis and peritoneal dialysis. It is typically performed through pump-driven venovenous extracorporeal circuits and acts as renal support through blood purification to allow solute and fluid homeostasis. CRRT is often chosen for renal replacement in hemodynamically unstable patients, and it is often employed in the intensive care unit. With a slower rate of fluid removal, CRRT theoretically causes less hypotension than other dialysis techniques. Another advantage of CRRT for these patients is that they often require a large volume of fluid administration, including medications and parenteral nutrition, and CRRT can prevent an overloaded state.
The blood or plasma is introduced to the blood side 156 of the filter. Dialysate fluid that has no drug (nor analyte of interest) is pumped through the other side 157 of the filter. This process creates a movement of the analyte of interest from the blood side 156 of the filter to the dialysate side 157 and ultimately excretion into an effluent container 107 (simulating drug removal). The pumps 110, 111, 112, 113 are set at typical clinical levels (e.g., 300-500 mL/min) for pump speed and are optimized based on performance criteria (and by trial and error) for the specific treatment simulation.
In some embodiments, the system 100 is run for 1 hour, and during this time samples (500 μL each) are taken at the respective sample points 103, 104, 105, 106 at time 0, 10, 20, 30, 40 and 60 minutes after starting the pumps 110, 111, 112, 113. These samples are assayed for the analyte of interest. These are the numerical treatment simulation results that are used in silico (described below) to scale and to predict human dialysis situations (i.e., create a virtual patient) and also to extend the predictions to many other dialysis settings (e.g., different filter types, flow rates, type of fluids pumped in, etc.) that are used in different clinical conditions.
As shown in an exemplary algorithm and schematic of the invention in FIGS. 3A-3C, the treatment simulation and in-silico modeling, simulations, and extrapolation are used to determine the effects of dialysis on a drug or analyte of interest. In blocks A and B of FIG. 3A, bovine or human plasma or blood is spiked with a drug or an exogenous analyte existing in plasma or blood. In block C, pumps, tubing, flow rates, filters, temperature, pH, dialysis or replacement solutions and apparatus are configured to mimic a type of CRRT (Continuous Renal Replacement Therapy) or IHD (Intermittent Hemodialysis). In block D, the system is run for approximately 1-2 hours. In block E, multiple samples from different ports 103, 104, 105, 106 (arterial, venous, effluent, and blood/plasma reservoir) are taken during the treatment simulation and the sampling information is recorded. In block F, the samples for the drug/analyte collected are assayed. In block G, the amount of the drug that is removed by the treatment simulation is determined, and rate and ratio parameters for the drug removal from plasma or blood are calculated.
One analyte was creatinine used as control, and the other was drug X (a drug under development). The Cybernetic Dialysis™ system 200 measures how much of drug X and how much creatinine is removed by dialysis and (referring back to FIG. 1) includes water bath 101 with shaking tray with thermal control set at 37° C. […]

[2] = as above; type: in vitro ADME; conditions: HF1400 membrane; 5 min after start of ex-vivo dialysis
[3] = AN69 M150 membrane, 10 min after start of ex-vivo dialysis
[4] = AN69 M150 membrane, 20 min after start of ex-vivo dialysis
[5] = AN69 M150 membrane, 30 min after start of ex-vivo dialysis
[6] = AN69 M150 membrane, 40 min after start of ex-vivo dialysis
[7] = AN69 M150 membrane, 60 min after start of ex-vivo dialysis
[8] = HF1400 membrane, 10 min after start of ex-vivo dialysis
[9] = HF1400 membrane, 20 min after start of ex-vivo dialysis
[10] = HF1400 membrane, 30 min after start of ex-vivo dialysis
[11] = HF1400 membrane, 40 min after start of ex-vivo dialysis
[12] = HF1400 membrane, 60 min after start of ex-vivo dialysis

Creatinine concentration, Arterial [1, 3]: 7.088 µg/mL
Creatinine concentration, Venous [1, 3]: 5.545 µg/mL
Creatinine concentration, Arterial [1, 4]: 6.53 µg/mL
Creatinine concentration, Venous [1, 4]: 5.216 µg/mL
Creatinine concentration, Arterial [1, 5]: 5.191 µg/mL
Creatinine concentration, Venous [1, 5]: 4.353 µg/mL
Creatinine concentration, Arterial [1, 6]: 4.145 µg/mL
Creatinine concentration, Venous [1, 6]: 3.706 µg/mL
Creatinine concentration, Arterial [1, 7]: 3.444 µg/mL
Creatinine concentration, Venous [1, 7]: 2.909 µg/mL
Reduction in creatinine on the arterial side ([1]; AN69 M150 membrane): 60%
Creatinine concentration, Arterial ([1]; AN69 M150 membrane, time point 0 min, bovine plasma): 8.581 µg/mL
Creatinine concentration, Arterial [1, 8]: 8.306 µg/mL
Creatinine concentration, Venous [1, 8]: 6.355 µg/mL
Creatinine concentration, Arterial [1, 9]: 6.174 µg/mL
Creatinine concentration, Venous [1, 9]: 5.052 µg/mL
Creatinine concentration, Arterial [1, 10]: 5.857 µg/mL
Creatinine concentration, Venous [1, 10]: 4.214 µg/mL
Creatinine concentration, Arterial [1, 11]: 5.261 µg/mL
Creatinine concentration, Venous [1, 11]: 3.782 µg/mL
Creatinine concentration, Arterial [1, 12]: 3.82 µg/mL
Creatinine concentration, Venous [1, 12]: 3.18 µg/mL
Change in creatinine concentration, venous vs. arterial side, mean over timepoints ([1]; HF1400 membrane, FIG. 7): -25.4%
Reduction in creatinine on the arterial side ([1]; HF1400 membrane): 56%
Reduction in creatinine on the venous side ([1]; HF1400 membrane): 63%
Total amount of creatinine in effluent, of total amount in the reservoir at time zero ([1]; HF1400 membrane): 66.3%
Creatinine concentration, Arterial ([1]; HF1400 membrane, time point 0 min, bovine plasma): 8.581 µg/mL
Change in creatinine concentration, venous vs. arterial side, mean over timepoints ([1]; M150 AN69 membrane, FIG. 5): -16.8%
Reduction in creatinine on the venous side ([1]; M150 AN69 membrane): 66%
Total amount of creatinine in effluent, of total amount in the reservoir at time zero ([1]; M150 AN69 membrane): 68.0%
Total amount of creatinine (at time zero) remaining in the membrane cartridge and associated tubing ([1]; both membrane types (M150 AN69 and HF1400)): about 5%
C0 at 0 min ([1]; AN69 M150 membrane): 8370 ng/mL
C0 at 0 min ([1]; HF1400 membrane): 8580 ng/mL
Creatinine concentration, Arterial [2]: 8.675 µg/mL
Creatinine concentration, Venous [2]: 5.41 µg/mL
Structure (SMILES): CN1CC(=O)NC1=N [creatinine]
